Reference: patent publication US8735406B2, “8-oxodihydropurine derivative” (Dainippon Sumitomo Pharma Co., Ltd., priority 2009, dated 2014)

Biological target: T1, FAAH (Rattus norvegicus, UniProt P97612)
T1 construct: Preparation of Rat Brain Membranes Preparations (FAAH Enzyme Solution); from tissue; host or cells: rat cerebrum (brain membrane preparation)
T1 sequence (P97612 1-579): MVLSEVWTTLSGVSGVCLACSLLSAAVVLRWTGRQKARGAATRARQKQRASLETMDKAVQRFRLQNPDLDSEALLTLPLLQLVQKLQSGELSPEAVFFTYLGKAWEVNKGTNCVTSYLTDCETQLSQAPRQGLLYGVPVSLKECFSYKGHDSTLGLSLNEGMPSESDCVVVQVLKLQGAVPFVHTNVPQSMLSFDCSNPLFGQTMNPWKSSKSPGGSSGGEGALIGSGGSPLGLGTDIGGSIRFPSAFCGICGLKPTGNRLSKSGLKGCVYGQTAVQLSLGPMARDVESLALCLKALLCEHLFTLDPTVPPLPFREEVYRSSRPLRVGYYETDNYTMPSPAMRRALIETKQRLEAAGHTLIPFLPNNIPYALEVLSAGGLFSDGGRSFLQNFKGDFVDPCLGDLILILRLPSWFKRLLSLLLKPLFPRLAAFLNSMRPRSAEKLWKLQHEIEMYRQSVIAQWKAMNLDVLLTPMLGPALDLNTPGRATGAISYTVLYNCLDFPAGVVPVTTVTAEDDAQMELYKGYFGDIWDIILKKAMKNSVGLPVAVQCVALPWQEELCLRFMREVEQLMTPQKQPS
Test: Determination of FAAH inhibitory activity in rat (rat brain membrane preparations, [3H]-anandamide hydrolysis)
Type: biochemical
Conditions: rat brain membrane preparations; for inhibition at 0.1 µM: 100 nM test substance, read-out: FAAH Inhibition, Inhibition Rate at 100 nM; for IC50: test substance 0.1 nM to 1 μM, read-out: FAAH Inhibition IC50
Method in brief: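 Rat cerebrum membranes (100 μg/mL protein) preincubated 10 min at 37 °C with compound (1% DMSO) in pH 7.6 Tris buffer with 1.5% BSA. Substrate 2 nM [3H]-anandamide plus 2 μM anandamide added for 10 min at 37 °C. [3H]-ethanolamine in the aqueous phase after chloroform/methanol extraction was scintillation counted; IC50 over 0.1 nM–1 μM.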

Row | SMILES | inhibition at 0.1 µM | IC50
1 | Cn1c(=O)n(C(=O)N2CCCC2)c2nc(-c3cccnc3)ncc21 [Example 248] | 33% | > 100 nM
2 | Cn1c(=O)n(C(=O)N2CCCC2)c2nc(-c3ccc(F)nc3)ncc21 [Example 249] | 55% | 91 nM
3 | COc1ccc(-c2ncc3c(n2)n(C(=O)N2CCCC2)c(=O)n3C)cn1 [Example 250, 2-(6-Methoxypyridin-3-yl)-7-methyl-9-(pyrrolidin-1-ylcarbonyl)-7,9-dihydro-8H-purine-8-one] | 78% | 63 nM
4 | COc1cncc(-c2ncc3c(n2)n(C(=O)N2CCCC2)c(=O)n3C)c1 [Example 251] | 28% | > 100 nM
5 | Cn1c(=O)n(C(=O)N2CCCC2)c2nc(-c3ccncc3)ncc21 [Example 252] | 40% | > 100 nM
6 | Cn1c(=O)n(C(=O)N2CCCC2)c2cnc(Cc3ccccc3F)nc21 [Example 254, 2-(2-Fluorobenzyl)-9-methyl-7-(pyrrolidin-1-ylcarbonyl)-7,9-dihydro-8H-purine-8-one] | 98% | 33 nM
7 | Cc1ccccc1Cc1ncc2c(n1)n(C)c(=O)n2C(=O)N1CCCC1 [Example 257, 9-Methyl-2-(2-methylbenzyl)-7-(pyrrolidin-1-ylcarbonyl)-7,9-dihydro-8H-purine-8-one] | 88% | 51 nM
8 | Cc1cccc(Cc2ncc3c(n2)n(C)c(=O)n3C(=O)N2CCCC2)c1 [Example 258, 9-Methyl-2-(3-methylbenzyl)-7-(pyrrolidin-1-ylcarbonyl)-7,9-dihydro-8H-purine-8-one] | 98% | 40 nM
9 | COc1cccc(Cc2ncc3c(n2)n(C)c(=O)n3C(=O)N2CCCC2)c1 [Example 261, 2-(3-Methoxybenzyl)-9-methyl-7-(pyrrolidin-1-ylcarbonyl)-7,9-dihydro-8H-purine-8-one] | 100% | 16 nM
10 | COc1ccc(Cc2ncc3c(n2)n(C)c(=O)n3C(=O)N2CCCC2)cc1 [Example 262, 2-(4-Methoxybenzyl)-9-methyl-7-(pyrrolidin-1-ylcarbonyl)-7,9-dihydro-8H-purine-8-one] | 99% | 24 nM
11 | Cn1c(=O)n(C(=O)N2CCCC2)c2cnc(Cc3ccc(F)cc3F)nc21 [Example 266, 2-(2,4-Difluorobenzyl)-9-methyl-7-(pyrrolidin-1-ylcarbonyl)-7,9-dihydro-8H-purine-8-one] | 92% | 41 nM
12 | Cn1c(=O)n(C(=O)N2CCCC2)c2cnc(Cc3cc(F)ccc3F)nc21 [Example 267, 2-(2,5-Difluorobenzyl)-9-methyl-7-(pyrrolidin-1-ylcarbonyl)-7,9-dihydro-8H-purine-8-one] | 99% | 23 nM
13 | Cn1c(=O)n(C(=O)N2CCCC2)c2cnc(Cc3c(F)cccc3F)nc21 [Example 268, 2-(2,6-Difluorobenzyl)-9-methyl-7-(pyrrolidin-1-ylcarbonyl)-7,9-dihydro-8H-purine-8-one] | 93% | 48 nM
14 | Cn1c(=O)n(C(=O)N2CCCC2)c2cnc(Cc3cc(F)cc(F)c3)nc21 [Example 270, 2-(3,5-Difluorobenzyl)-9-methyl-7-(pyrrolidin-1-ylcarbonyl)-7,9-dihydro-8H-purine-8-one] | 96% | 32 nM
15 | CC(c1ccccc1)c1ncc2c(n1)n(C)c(=O)n2C(=O)N1CCCC1 (stereo not drawn) [Example 273] | 89% | 47 nM
16 | CC(C)c1ncc2c(n1)n(C)c(=O)n2C(=O)N1CCCC1 [Example 275] | 73% | 64 nM
17 | CCOC(=O)CCc1ncc2c(n1)n(C)c(=O)n2C(=O)N1CCCC1 [Example 276] | 63% | 75 nM
18 | Cn1c(=O)n(C(=O)N2CCCC2)c2nc(Cc3cccc(F)c3)ncc21 [Example 286, 2-(3-Fluorobenzyl)-7-methyl-9-(pyrrolidin-1-ylcarbonyl)-7,9-dihydro-8H-purine-8-one] | 86% | 59 nM
19 | COc1ccc(Cc2ncc3c(n2)n(C(=O)N2CCCC2)c(=O)n3C)cc1 [Example 287, 2-(4-Methoxybenzyl)-7-methyl-9-(pyrrolidin-1-ylcarbonyl)-7,9-dihydro-8H-purine-8-one] | 96% | 29 nM
20 | COc1cccc(Cc2ncc3c(n2)n(C(=O)N2CCCC2)c(=O)n3C)c1 [Example 288, 2-(3-Methoxybenzyl)-7-methyl-9-(pyrrolidin-1-ylcarbonyl)-7,9-dihydro-8H-purine-8-one] | 86% | 47 nM
21 | Cn1c(=O)n(C(=O)N2CCCC2)c2nc(CCc3ccccc3)ncc21 [Example 290, 7-Methyl-2-(2-phenylethyl)-9-(pyrrolidin-1-ylcarbonyl)-7,9-dihydro-8H-purine-8-one] | 93% | 47 nM
22 | Cn1c(=O)n(C(=O)N2CCCC2)c2nc(Cc3ccc(F)c(F)c3)ncc21 [Example 293, 2-(3,4-Difluorobenzyl)-7-methyl-9-(pyrrolidin-1-ylcarbonyl)-7,9-dihydro-8H-purine-8-one] | 97% | 24 nM
23 | Cc1cccc(Cc2ncc3c(n2)n(C(=O)N2CCCC2)c(=O)n3C)c1 [Example 294, 7-Methyl-2-(3-methylbenzyl)-9-(pyrrolidin-1-ylcarbonyl)-7,9-dihydro-8H-purine-8-one] | 93% | 37 nM

Compounds with a lower IC50, results first:

Row | inhibition at 0.1 µM | IC50 | SMILES
24 | 100% | 5 nM | Cn1c(=O)n(C(=O)N2CCCC2)c2cnc(Cc3ccccc3)nc21 [Example 253, 2-benzyl-9-methyl-7-(pyrrolidin-1-ylcarbonyl)-7,9-dihydro-8H-purine-8-one]
25 | 100% | 14 nM | Cn1c(=O)n(C(=O)N2CCCC2)c2cnc(Cc3cccc(F)c3)nc21 [Example 255, 2-(3-Fluorobenzyl)-9-methyl-7-(pyrrolidin-1-ylcarbonyl)-7,9-dihydro-8H-purine-8-one]
26 | 99% | 7 nM | Cn1c(=O)n(C(=O)N2CCCC2)c2cnc(Cc3ccc(F)cc3)nc21 [Example 256, 2-(4-Fluorobenzyl)-9-methyl-7-(pyrrolidin-1-ylcarbonyl)-7,9-dihydro-8H-purine-8-one]
27 | 98% | 9 nM | Cn1c(=O)n(C(=O)N2CCCC2)c2cnc(Cc3ccc(-c4ccccc4)cc3)nc21 [Example 265, 2-(Biphenyl-4-ylmethyl)-9-methyl-7-(pyrrolidin-1-ylcarbonyl)-7,9-dihydro-8H-purine-8-one]
28 | 98% | 10 nM | CCCCc1ncc2c(n1)n(C)c(=O)n2C(=O)N1CCCC1 [Example 274, 2-Butyl-9-methyl-7-(pyrrolidin-1-ylcarbonyl)-7,9-dihydro-8H-purine-8-one]
29 | 96% | 7 nM | CCN(C)C(=O)n1c(=O)n(C)c2nc(Cc3cccc(OC)c3)ncc21 [Example 277, N-Ethyl-2-(3-methoxybenzyl)-N,9-dimethyl-8-oxo-8,9-dihydro-7H-purine-7-carboxamide]
30 | 99% | 8 nM | CCN(C)C(=O)n1c(=O)n(C)c2nc(Cc3ccccc3)ncc21 [Example 278, 2-Benzyl-N-ethyl-N,9-dimethyl-8-oxo-8,9-dihydro-7H-purine-7-carboxamide]
31 | 98% | 3 nM | CCN(C)C(=O)n1c(=O)n(C)c2nc(Cc3ccc(F)cc3)ncc21 [Example 279, N-Ethyl-2-(4-fluorobenzyl)-N,9-dimethyl-8-oxo-8,9-dihydro-7H-purine-7-carboxamide]
32 | 105% | 11 nM | CCN(C)C(=O)n1c(=O)n(C)c2nc(Cc3ccc(OC)cc3)ncc21 [Example 280, N-Ethyl-2-(4-methoxybenzyl)-N,9-dimethyl-8-oxo-8,9-dihydro-7H-purine-7-carboxamide]
33 | 98% | 14 nM | CCN(C)C(=O)n1c(=O)n(C)c2nc(Cc3ccc(C)cc3)ncc21 [Example 281, N-Ethyl-N,9-dimethyl-2-(4-methylbenzyl)-8-oxo-8,9-dihydro-7H-purine-7-carboxamide]
34 | 97% | 10 nM | CCN(C)C(=O)n1c(=O)n(C)c2nc(Cc3cccc(C)c3)ncc21 [Example 282, N-Ethyl-N,9-dimethyl-2-(3-methylbenzyl)-8-oxo-8,9-dihydro-7H-purine-7-carboxamide]
35 | 100% | 3 nM | CCN(C)C(=O)n1c(=O)n(C)c2nc(Cc3cccc(F)c3)ncc21 [Example 284, N-Ethyl-2-(3-fluorobenzyl)-N,9-dimethyl-8-oxo-8,9-dihydro-7H-purine-7-carboxamide]
36 | 96% | 15 nM | Cc1ccc(Cc2ncc3c(n2)n(C(=O)N2CCCC2)c(=O)n3C)cc1 [Example 289, 7-Methyl-2-(4-methylbenzyl)-9-(pyrrolidin-1-ylcarbonyl)-7,9-dihydro-8H-purine-8-one]
